Measurements published in ChEMBL document CHEMBL5725601, “Tetrahydroisoquinoline derivatives useful as inhibitors of diacylglyceride O-acyltransferase 2” (2018).

Biological target: T1, Diacylglycerol O-acyltransferase 2 (Homo sapiens, UniProt Q96PD7)
T1 sequence (Q96PD7 whole entry): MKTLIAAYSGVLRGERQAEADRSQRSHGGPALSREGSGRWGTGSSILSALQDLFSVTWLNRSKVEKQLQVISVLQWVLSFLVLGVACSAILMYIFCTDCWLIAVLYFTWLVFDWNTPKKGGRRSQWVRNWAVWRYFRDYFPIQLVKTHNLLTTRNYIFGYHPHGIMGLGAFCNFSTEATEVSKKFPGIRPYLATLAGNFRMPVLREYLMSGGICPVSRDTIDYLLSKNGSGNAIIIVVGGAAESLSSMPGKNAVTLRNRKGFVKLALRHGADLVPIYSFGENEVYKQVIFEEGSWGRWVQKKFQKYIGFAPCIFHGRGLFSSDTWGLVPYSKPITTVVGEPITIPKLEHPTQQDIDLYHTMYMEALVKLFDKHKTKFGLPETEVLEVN
Assay: Enzymatic Activity Assay: DGAT2 activity was determined by measuring the amount of enzymatic product triolein (1,2,3-Tri(cis-9-octadecenoyl)glycerol) using the membrane prep mentioned above. The assay was carried out in deep well 384 plates in a final volume of 40 μL at room temperature. The assay mixture contained the following: assay buffer (100 mM Tris·Cl, pH 7.0, 20 mM MgCl2, 5% ethanol), 25 μM of diolein, 10 μM of oleoyl-CoA and 10 ng/μL of DGAT2 membrane.

| IC50 | SMILES |
| --- | --- |
| 588 nM | CC(C)(C)NC(=O)N1CCc2c(-c3cccc(C(F)(F)F)c3)ccc(C(=O)NCc3nc(-c4ccccn4)no3)c2C1 |
| 326 nM | CC(C)(C)NC(=O)N1CCc2c(-c3cccc(C(F)(F)F)c3)ccc(C(=O)NCc3noc(-c4ccccc4)n3)c2C1 |
